{"source": "patent US20070265208A1", "about": "“Association of calpain inhibitors and reactive oxygen species trapping agents” (priority 2000, published 2007)", "key": {"human calpain I": {"biological_target": "T1, human calpain I (Homo sapiens, UniProt P07384)", "T1 construct": "enzyme purified from human erythrocytes; purchased Calbiochem 208713; host or cells: human erythrocytes (native tissue source)", "T1 sequence (P07384 1-714)": "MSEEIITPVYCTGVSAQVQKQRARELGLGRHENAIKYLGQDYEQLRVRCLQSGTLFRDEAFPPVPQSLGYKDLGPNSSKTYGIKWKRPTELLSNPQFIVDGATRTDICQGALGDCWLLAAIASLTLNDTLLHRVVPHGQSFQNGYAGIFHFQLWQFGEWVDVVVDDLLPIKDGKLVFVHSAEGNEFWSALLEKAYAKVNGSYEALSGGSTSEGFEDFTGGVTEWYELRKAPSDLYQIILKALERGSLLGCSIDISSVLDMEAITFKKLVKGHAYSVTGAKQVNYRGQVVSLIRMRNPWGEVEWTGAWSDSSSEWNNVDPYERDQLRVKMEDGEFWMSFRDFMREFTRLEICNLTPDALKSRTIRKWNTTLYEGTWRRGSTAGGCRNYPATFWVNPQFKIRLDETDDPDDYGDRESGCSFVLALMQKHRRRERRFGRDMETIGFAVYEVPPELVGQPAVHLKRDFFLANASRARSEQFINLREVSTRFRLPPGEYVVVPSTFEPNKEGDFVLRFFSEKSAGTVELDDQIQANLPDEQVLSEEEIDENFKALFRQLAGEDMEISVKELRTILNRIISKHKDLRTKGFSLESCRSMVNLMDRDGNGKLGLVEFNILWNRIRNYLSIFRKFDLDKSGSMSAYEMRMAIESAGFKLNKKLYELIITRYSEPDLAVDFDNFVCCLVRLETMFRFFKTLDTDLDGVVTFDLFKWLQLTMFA", "T1 sequence (P04632 1-268 partner)": "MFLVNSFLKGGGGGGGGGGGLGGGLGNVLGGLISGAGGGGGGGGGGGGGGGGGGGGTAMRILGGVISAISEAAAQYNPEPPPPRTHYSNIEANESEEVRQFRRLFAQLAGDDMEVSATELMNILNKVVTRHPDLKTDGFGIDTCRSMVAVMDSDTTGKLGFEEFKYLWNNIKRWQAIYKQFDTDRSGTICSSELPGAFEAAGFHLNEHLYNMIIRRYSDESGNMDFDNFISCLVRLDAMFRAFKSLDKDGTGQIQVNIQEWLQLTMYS", "assay": "Effects on human calpain I (acellular, Suc-Leu-Tyr-AMC fluorescence)", "format": "biochemical", "settings": "enzyme purified from human erythrocytes; 1 h at 25°C; read-out: Inhibition human calpain I, acellular [IC50 (nM)]", "protocol": "The test consists of measuring the activity of the enzyme (enzyme purified from human erythrocytes) which is incubated in a buffer in the presence of a peptide substrate coupled with a fluorochrome (amino-methylcourmarin, AMC) and calcium. The enzyme activated by the calcium, proteolyses the substrate and releases the AMC fragment. The AMC released fluoresces at 460 nm under excitation at 380 nm. The activity of the enzyme is therefore proportional to the quantity of fluorescence i.e. of free AMC fragment. The fluorescence (380/460 nm) is measured using a multi-well fluorimeter (Victor 2, Wallac).\nAssay is carried out in 96-well microplates with transparent bottoms and black walls in which 10 μl per well of substance to be tested in DMSO 10%, 45 μl of reaction mixture containing the human calpain I at 2.2 U/ml (Calbiochem, ref: 208713), the Suc Leu Tyr-AMC substrate (Bachem, ref: I-1355) at 1.1 mM in a buffer (Tris-HCl 110 mM; NaCl 110 mM; EDTA 2.2 mM; EGTA 2.2 mM; mercaptoethanol 1.1 mM) are distributed. The reaction is initiated by adding 45 μl of CaCl2 22mM. To determine the background noise, control wells without calcium are added to the plate (10 μL DMSO 10%+45 μL of buffer with the enzyme and the susbtrate +45 μL H2O). In order to determine the total activity of the enzyme control wells containing no product are added to the plate (10 μL DMSO 10%+45 μL of buffer with the enzyme and the substrate +45 μL of CaCl2 22 mM ). Each concentration of the products (0.1 nM to 10 μM) is tested in duplicate. The plates are shaken and incubation takes place for one hour at 25° C. in darkness. The fluorescence is read at 380/460 nm using the Victor."}, "[1]": {"system": "human neuroblastomas SHSY5Y", "assay": "Protection from necrosis induced by maitotoxin, SHSY5Y (wst-1 viability)", "format": "cell-based", "settings": "for Protection from necrosis induced by MTX: SHSY5Y, n=2, 0.1 nM maitotoxin; for Protection from necrosis induced by MTX on SHSY5Y: n = 8, single product at 100 μM", "protocol": "(§1) Human neuroblastomas SHSY5Y and rat glial cells C6 are seeded at 25 000 cells per well in 96-well plates in DMEM 10% FBS for 24 hours. The L6 rat myoblasts are seeded at 1000 cells per well in DMEM 10% FBS on 96-well microplates coated beforehand with gelatin 0.5% PBS. After culture for 3 days the medium is removed and replaced with a differentiation medium (DMEM+10 μg/ml of insulin+100 μg/ml of transferrin). 50 μl of product A plus 50 μl of solvent or 50 μl of product B are placed in the wells. After incubation for 1 hour at 37° C. under an atmosphere of 5% CO2, 10 μl of maitotoxin is added in order to obtain a final concentration of 0.1 nM to 1 nM (according to the cell type). After incubation for 3 hours at 37° C. under an atmosphere of 5% CO2, the cell viability is determined by adding 10 μl of tetrazolium salts (wst-1, Roche, ref: 1644807). The tetrazolium salts are cleaved into formazan molecules by mitochondrial dehydrogenases. The quantity of formazan formed is directly correlated to the number of metabolically active cells in the culture. Measurement of the absorbance of the formazan is carried out using a multiwell photometer at a wavelength of 420 nm against a reference wavelength of 620 nm.\n(§2) The theoretical effect was obtained by multiplying the percentage of dead cells in the presence of product A by the percentage of dead cells in the presence of product B (Table 3). The percentage protection against cell death induced by MTX being the percentage of cells kept alive in the presence of the product or products.\nIn a first series of experiments, the concentration of product A in Example 1 is fixed (100 μM), product B is added at concentrations varying from zero to 100 μM (Table 4A). In a second series of experiments, product B of Example 1 is fixed at 100 μM, product A is added at concentrations varying from zero to 100 μM (Table 4B)."}, "rat glial cells C6": {"system": "rat glial cells C6", "assay": "Protection from necrosis induced by maitotoxin, C6 (wst-1 viability)", "format": "cell-based", "settings": "single product at 50 μM, n = 3 for Example 2, else n = 1", "protocol": "as §1, §2\nIn the light of the previous results, the combination of Example 1 with product A and product B at a rate of 100 μM of each of the products is carried out on human neuroblastomas (SHSY5Y; (Table 5A) and on glial cells with 25 μM of product A and 50 μM of product B (C6; Table 5B) on a larger number of cases."}}, "data": [{"compound": "CC(C)C[C@@H](C=O)NC(=O)[C@H](CC(C)C)NC(=O)OCc1ccccc1", "note": "[EXAMPLE 1 B, benzyl (1S)-1-({[(1S)-1-formyl-3-methylbutyl]amino}carbonyl)-3-methylbutylcarbamate]", "values": [{"measurement": "IC50", "setting": "human calpain I", "result": 6, "unit": "nM"}, {"measurement": "Protection from necrosis induced by MTX", "setting": "[1]; single compound at 12.5 μM", "result": "6.89 ± 1.51", "unit": "%"}, {"measurement": "Protection from necrosis induced by MTX", "setting": "[1]; single compound at 25 μM", "result": "6.94 ± 0.2", "unit": "%"}, {"measurement": "Protection from necrosis induced by MTX", "setting": "[1]; single compound at 50 μM", "result": "9.01 ± 0.83", "unit": "%"}, {"measurement": "Protection from necrosis induced by MTX", "setting": "[1]; single compound at 100 μM", "result": "17.52 ± 2.69", "unit": "%"}, {"measurement": "Protection from necrosis induced by MTX on SHSY5Y", "setting": "[1]", "result": "12.87 ± 3.72", "unit": "%"}, {"measurement": "Protection from necrosis induced by MTX on SHSY5Y", "setting": "[1]; listed as Z-Leu-Leu-H", "result": "not active"}, {"measurement": "Protection from necrosis induced by MTX on C6", "setting": "rat glial cells C6", "result": 9.63, "unit": "%"}, {"measurement": "Protection from necrosis induced by MTX on C6", "setting": "rat glial cells C6; listed as EXAMPLE 6 B", "result": 4.91, "unit": "%"}, {"measurement": "Protection from necrosis induced by MTX on C6", "setting": "rat glial cells C6; listed as Z-Leu-Leu-H", "result": "not active"}]}]}
